Results from ChEMBL document CHEMBL1159234, “Antitumor agents, 157. Absolute structures of cumingianosides A-F, antileukemic triterpene glucosides, and structures of the hydrolysates of cumingianoside A” (J Nat Prod, 1995).

Test system: MOLT-4
Test: Cytotoxicity against human MOLT4 cells
Format: functional, cell-based

## COC(C)(C)[C@@H](O)[C@H](O)C[C@H](C)[C@@H]1CC[C@]23C[C@]12CC[C@@H]1[C@@]2(C)CC[C@@H](OC(C)=O)C(C)(C)[C@@H]2C[C@@H](O[C@@H]2O[C@H](COC(C)=O)[C@@H](O)[C@H](O)[C@H]2O)[C@]13C [CUMINGIANOSIDE C]
  EC50: < 4.5 nM

## CC(=O)OC[C@H]1O[C@@H](O[C@@H]2C[C@H]3C(C)(C)[C@H](OC(C)=O)CC[C@]3(C)[C@H]3CC[C@]45C[C@]4(CC[C@H]5[C@@H](C)C[C@@H](O)[C@H](O)C(C)(C)O)[C@@]32C)[C@H](O)[C@@H](O)[C@@H]1O [CUMINGIANOSIDE A]
  EC50: < 6.25 nM
